In general, IC50 refers to the point on the concentration scale where inhibition reaches its midpoint. A lower IC50 goes with inhibition by little substance.

[UNA] = unlocked nucleic acid; m = 2'-O-methyl; r = 2'-OH (RNA)

In this data set the test system is HBV genome. Briefly: siRNA IC50 (Table A). Also on record: species or system Hepatitis B virus.

For the substance “7m: siRNA duplex SEQ ID NO: 13 and 14 targeting the HBV genome (chain 1 CCGUGUGCACUUCGCUUCAUU; chain 2 UGAAGCGAAGUGCACACGGUU; chain 1: sugars from the 5' end [UNA]rrrmmrrrrrmrrrmrrr[UNA][UNA], backbone not given here; chain 2: sugars from the 5' end rrrrrrrrrrrmrrrrrmr[UNA][UNA], backbone not given here) [Compound 7m]”, the concentration for half-maximal inhibition (IC50) came to 0.06 nM.

The substance “2m: siRNA duplex SEQ ID NO: 3 and 4 targeting the HBV genome (chain 1 GCUCAGUUUACUAGUGCCAUU; chain 2 UGGCACUAGUAAACUGAGCUU; chain 1: sugars from the 5' end [UNA]rmmrmrrrrrrrrrrrmrr[UNA], backbone not given here; chain 2: sugars from the 5' end r9 m1 r7 m1 r3, backbone not given here) [Compound 2m]” showed an IC50 of 0.37 nM.

As for “15m: siRNA duplex SEQ ID NO: 29 and 30 targeting the HBV genome (chain 1 CUGGCUCAGUUUACUAGUGUU; chain 2 CACUAGUAAACUGAGCCAGUU; chain 1: sugars from the 5' end [UNA]mmrrmrrrrrmrrrrrrr[UNA][UNA], backbone not given here; chain 2: sugars from the 5' end r14 m1 r4 [UNA]2, backbone not given here) [Compound 15m]”, the IC50 was 0.17 nM.

In the case of “13m: siRNA duplex SEQ ID NO: 25 and 26 targeting the HBV genome (chain 1 GCCGAUCCAUACUGCGGAAUU; chain 2 UUCCGCAGUAUGGAUCGGCUU; chain 1: sugars from the 5' end [UNA]rrmrmrrrrrrmmrrmrr[UNA][UNA], backbone not given here; chain 2: sugars from the 5' end rrrrrrrmrrrrmrrrrmr[UNA][UNA], backbone not given here) [Compound 13m]”, it took 0.2 nM to reach half-maximal inhibition (IC50).

As to “12m: siRNA duplex SEQ ID NO: 23 and 24 targeting the HBV genome (chain 1 GCCGAUCCAUACUGCGGAAUU; chain 2 UUCCGCAGUAUGGAUCGGCUU; chain 1: sugars from the 5' end [UNA]rrmrmrrrrrrmmrrmrrr[UNA], backbone not given here; chain 2: sugars from the 5' end rrrrrrrmrrrrmrrrrmrrr, backbone not given here) [Compound 12m]”, half-maximal inhibition (IC50) required 0.16 nM.

In turn, “8m: siRNA duplex SEQ ID NO: 15 and 16 targeting the HBV genome (chain 1 GCUCAGUUUACUAGUGCCAUU; chain 2 UGGCACUAGUAAACUGAGCUU; chain 1: sugars from the 5' end [UNA]rmrrmrrrrrmrmrrrrr[UNA][UNA], backbone not given here; chain 2: sugars from the 5' end r14 m1 r4 [UNA]2, backbone not given here) [Compound 8m]” showed an IC50 of 0.24 nM.

On to “4m: siRNA duplex SEQ ID NO: 7 and 8 targeting the HBV genome (chain 1 GCUCAGUUUACUAGUGCCAUU; chain 2 UGGCACUAGUAAACUGAGCUU; chain 1: sugars from the 5' end [UNA]rmmrmrrrrrrrrrrrmr[UNA][UNA], backbone not given here; chain 2: sugars from the 5' end rrrrrrrrrmrrrrrrrmr[UNA][UNA], backbone not given here) [Compound 4m]”, for which 0.31 nM corresponded to half-maximal inhibition (IC50).

“3m: siRNA duplex SEQ ID NO: 5 and 6 targeting the HBV genome (chain 1 CCGUGUGCACUUCGCUUCAUU; chain 2 UGAAGCGAAGUGCACACGGUU; chain 1: sugars from the 5' end [UNA]rrrmmrrrrrmrrrmmrr[UNA][UNA], backbone not given here; chain 2: sugars from the 5' end rrrrrrrrrrrmrrrrrmr[UNA][UNA], backbone not given here) [Compound 3m]”: the IC50 came to 0.06 nM.
